The text below walks through data of patent US8466153B2, “Piperidinylamino-pyridazines and their use as fast dissociating dopamine 2 receptor antagonists” (Janssen Pharmaceutica N.V., priority 2006, dated 2013).

The target of data set [1] is T1, human Dopamine D2L receptor (Homo sapiens, UniProt P14416).
T1 construct: expressed in transfected cells; host or cells: CHO cells
Description: In vitro binding affinity for human D2L receptor ([3H]spiperone competition). The note with it: membranes of human D2L receptor-transfected CHO cells, 30 min, 37° C. The source says: In order to find antipsychotic compounds active against positive symptoms and having an improved safety profile (low EPS incidence and no metabolic disorders), we have screened for compounds selectively interacting with the dopamine D2 receptor and dissociating fast from this receptor. Compounds were first screened for their D2 affinity in a binding assay using [^3H]spiperone and human D2L receptor cell membranes.
Frozen membranes of human Dopamine D2L receptor-transfected CHO cells were thawed, briefly homogenised using an Ultra-Turrax T25 homogeniser and diluted in Tris-HCl assay buffer containing NaCl, CaCl2, MgCl2, KCl (50, 120, 2, 1, and 5 mM respectively, adjusted to pH 7.7 with HCl) to an appropriate protein concentration optimised for specific and non-specific binding. Radioligand [^3H]Spiperone (NEN, specific activity ˜70 Ci/mmol) was diluted in assay buffer at a concentration of 2 nmol/L. Prepared radioligand (50 μl), along with 50 μl of either the 10% DMSO control, Butaclamol (10^−6 mol/l final concentration), or compound of interest, was then incubated (30 min, 37° C.) with 400 μl of the prepared membrane solution. Membrane-bound activity was filtered through a Packard Filtermate harvester onto GF/B Unifilterplates and washed with ice-cold Tris-HCl buffer (50 mM; pH 7.7; 6×0.5 ml). Filters were allowed to dry before adding scintillation fluid and counting in a Topcount scintillation counter. Percentage specific bound and competition binding curves were calculated using S-Plus software (Insightful).

For data set [2], the system named is Apomorphine-induced agitation, stereotypy in rats. Description: Inhibition of the apomorphine induced agitation test in rats. The format is in vivo. Particulars: Rattus norvegicus, 0.5 h, apomorphine 1.0 mg/kg i.v. at 30 min, male Wiga Wistar rats. The method, then:
Male Wiga Wistar rats (180-280 g) were administered test compound (sc: subcutaneously; po: orally; n=3 per dose; dose=0.16, 0.63 and 2.5 mg/kg) or solvent and then challenged with apomorphine (1.0 mg/kg, i.v.) at 30 min. The effects of the test compound on the behavioral changes were evaluated according to all-or-none criteria based on the distribution of results in a large series of control data obtained in solvent-pretreated rats.
Apomorphine (1.0 mg/kg, i.v.)-induced agitation, stereotypy (compulsive sniffing, licking, chewing), was scored every 5 min over the first hour after injection of apomorphine. The score system was: (3) pronounced, (2) moderate, (1) slight, and (0) absent. […] The table below gives the lowest active dose at which 3 out of 3 rats tested met one of the criteria for drug-induced inhibition of agitation.

The mark [3] stands for this setting: sc, subcutaneously, read-out: sc Dose: lowest active dose at which 3 out of 3 rats met a criterion for inhibition of agitation.

pIC50: −log10 of the molar value. Like-named read-outs stand apart in the source and are kept apart here.

The melting point is the temperature, or range, at which the solid turns liquid. As a reminder, the pIC50 is −log10 of the IC50, conventionally taken in molar units. A lower pIC50 goes with a high IC50.

T1 sequence (P14416 whole entry): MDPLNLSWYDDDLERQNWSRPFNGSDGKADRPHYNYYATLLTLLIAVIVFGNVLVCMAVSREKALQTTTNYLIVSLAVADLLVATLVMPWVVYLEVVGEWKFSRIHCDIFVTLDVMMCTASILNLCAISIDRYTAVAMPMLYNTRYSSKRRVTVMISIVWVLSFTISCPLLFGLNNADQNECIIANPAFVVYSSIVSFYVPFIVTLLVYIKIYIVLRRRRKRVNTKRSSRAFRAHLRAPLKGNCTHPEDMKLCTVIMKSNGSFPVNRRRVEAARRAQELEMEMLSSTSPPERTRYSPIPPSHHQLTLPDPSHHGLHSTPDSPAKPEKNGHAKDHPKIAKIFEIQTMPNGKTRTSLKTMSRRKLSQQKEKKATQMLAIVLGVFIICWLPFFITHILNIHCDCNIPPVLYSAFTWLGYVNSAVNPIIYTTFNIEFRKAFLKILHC

`N#Cc1ccc(NC2CCN(Cc3cc(C(F)(F)F)cc(C(F)(F)F)c3)CC2)nn1` [Example E11, 6-[1-(3,5-Bis-trifluoromethyl-benzyl)-piperidin-4-ylamino]-pyridazine-3-carbonitrile] came in with a melting point of 125 °C. This molecule also had a negative-log IC50 (pIC50) in data set [1] of under 5.00.
`N#Cc1ccc(NC2CCN(Cc3ccc(F)c(C(F)(F)F)c3)CC2)nn1` [Example E9, 6-[1-(4-Fluoro-3-trifluoromethyl-benzyl)-piperidin-4-ylamino]-pyridazine-3-carbonitrile] displayed a melting point of 183.1 °C. In data set [1], the pIC50 was 5.17. The minimal effective dose in data set [2] (setting [3]) was determined as 2.5 mg/kg.
In data set [1], `N#Cc1ccc(NC2CCN(Cc3ccc(OC(F)(F)F)c(Cl)c3)CC2)nn1` [Example E14, 6-[1-(3-Chloro-4-trifluoromethoxy-benzyl)-piperidin-4-ylamino]-pyridazine-3-carbonitrile] showed a negative-log IC50 (pIC50) of under 5.00.
Molecule `N#Cc1ccc(NC2CCN(Cc3ccc(F)cc3)CC2)nn1` [Example E2, 6-[1-(4-Fluoro-benzyl)-piperidin-4-ylamino]-pyridazine-3-carbonitrile] yielded a melting point of 187.44 °C. In data set [1], this molecule had a negative-log IC50 (pIC50) of 5.49. For the same molecule, the minimal effective dose in data set [2] (po, orally, read-out: po Dose: lowest active dose at which 3 out of 3 rats met a criterion for inhibition of agitation) turned out to be 0.63 mg/kg. The minimal effective dose in data set [2] (setting [3]) is 0.63 mg/kg.
For the molecule `N#Cc1ccc(NC2CCN(Cc3cccc(F)c3)CC2)nn1` [Example E5, 6-[1-(3-Fluoro-benzyl)-piperidin-4-ylamino]-pyridazine-3-carbonitrile], the melting point is 190.3 °C. The molecule also had a negative logarithm of the IC50 (pIC50) in data set [1] of 5.22. Also, the minimal effective dose in data set [2] (setting [3]) came to 2.5 mg/kg.
In turn, `N#Cc1ccc(NC2CCN(Cc3cccc(Cl)c3)CC2)nn1` [Example E13, 6-[1-(3-Chloro-benzyl)-piperidin-4-ylamino]-pyridazine-3-carbonitrile] registered a melting point of 151 °C. Also, in data set [1], the pIC50 was 5.49. Besides, in data set [2] (setting [3]), the minimal effective dose stood at 2.5 mg/kg.
`Cc1cc(NC2CCN(Cc3cc(F)cc(F)c3)CC2)nnc1C#N` [Example E20, 6-[1-(3,5-Difluoro-benzyl)-piperidin-4-ylamino]-4-methyl-pyridazine-3-carbonitrile] had a negative logarithm of the IC50 (pIC50) in data set [1] of 5.21. Besides, the minimal effective dose in data set [2] (setting [3]) worked out at 2.5 mg/kg.
`N#Cc1ccc(NC2CCN(Cc3cc(C(F)(F)F)ccc3F)CC2)nn1` [Example E12, 6-[1-(2-Fluoro-5-trifluoromethyl-benzyl)-piperidin-4-ylamino]-pyridazine-3-carbonitrile]: the melting point was found to be 142.5 °C. Besides, the pIC50 in data set [1] was 5.20. Moreover, the minimal effective dose in data set [2] (setting [3]) was over 2.5 mg/kg.
The molecule `Cc1ccc(CN2CCC(Nc3ccc(C#N)nn3)CC2)cc1C(F)(F)F` [Example E10, 6-[1-(4-Methyl-3-trifluoromethyl-benzyl)-piperidin-4-ylamino]-pyridazine-3-carbonitrile] had a melting point of 187.3 °C. This molecule also gave a pIC50 in data set [1] of 5.19. For the same molecule, the minimal effective dose in data set [2] (setting [3]) is over 2.5 mg/kg.
Regarding `N#Cc1ccc(NC2CCN(Cc3ccccc3)CC2)nn1` [Example D2, 6-(1-Benzyl-piperidin-4-ylamino)-pyridazin-3-carbonitrile], the negative logarithm of the IC50 (pIC50) in data set [1] was 5.53. For the same molecule, the minimal effective dose in data set [2] (setting [3]) is 2.5 mg/kg.
The molecule `N#Cc1ccc(NC2CCN(Cc3ccc(F)c(F)c3)CC2)nn1` [Example E1, 6-[1-(3,4-Difluoro-benzyl)-piperidin-4-ylamino]-pyridazine-3-carbonitrile] had a melting point of 189.86 °C. Also, in data set [1], the pIC50 is 5.39. The minimal effective dose in data set [2] (setting [3]) amounted to 2.5 mg/kg.
